Consider 16 compounds from patent US9045445B2, “Glycine transporter-1 inhibitors, methods of making them, and uses thereof” (Albany Molecular Research, Inc., priority 2010, dated 2015).

Test [1] deals with T1, glycine transporter-2 (GlyT-2) (Homo sapiens, UniProt Q9Y345).
T1 construct: expressed in transfected cells
T1 sequence (Q9Y345 1-797): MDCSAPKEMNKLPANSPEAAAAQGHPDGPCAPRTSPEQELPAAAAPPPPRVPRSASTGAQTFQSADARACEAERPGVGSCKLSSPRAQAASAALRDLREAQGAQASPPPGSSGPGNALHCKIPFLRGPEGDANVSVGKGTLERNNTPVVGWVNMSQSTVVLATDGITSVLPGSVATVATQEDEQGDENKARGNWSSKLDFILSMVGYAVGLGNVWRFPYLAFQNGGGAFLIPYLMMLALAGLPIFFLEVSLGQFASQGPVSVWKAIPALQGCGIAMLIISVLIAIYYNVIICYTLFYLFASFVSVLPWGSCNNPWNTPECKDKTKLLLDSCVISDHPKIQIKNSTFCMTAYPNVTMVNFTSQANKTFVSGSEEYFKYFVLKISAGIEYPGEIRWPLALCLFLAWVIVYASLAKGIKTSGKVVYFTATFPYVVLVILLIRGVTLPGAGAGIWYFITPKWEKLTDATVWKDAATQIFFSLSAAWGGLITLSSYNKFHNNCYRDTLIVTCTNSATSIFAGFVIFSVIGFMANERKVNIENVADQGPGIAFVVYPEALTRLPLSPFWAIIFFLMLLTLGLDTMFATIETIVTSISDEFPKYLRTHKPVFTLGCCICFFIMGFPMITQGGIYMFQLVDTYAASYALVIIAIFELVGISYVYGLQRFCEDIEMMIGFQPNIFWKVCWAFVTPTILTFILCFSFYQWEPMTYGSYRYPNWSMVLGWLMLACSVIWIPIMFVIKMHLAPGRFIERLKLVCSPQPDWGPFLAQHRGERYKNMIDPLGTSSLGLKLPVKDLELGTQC
Description: [14C]glycine uptake assay in HEK-GlyT-2 transfected cells. The following applies: HEK-GlyT-2 cells. Type of test: cell-based.

Test [2] concerns cerebrospinal fluid (CSF) glycine levels. Description: CSF-glycine assay after oral administration. Type of test: in vivo. The following applies: Rattus norvegicus, po, rats, read-out: % CSF Glycine Increase versus Vehicle Control. The protocol: This study measured cerebrospinal fluid (CSF) glycine levels after oral administration of test compound. […] After the specified pretreatment time, the rats were euthanized by CO2 asphyxiation and a hypodermic needle was inserted into the cisterna magna to withdraw 50-100 μl of CSF. The CSF was diluted with deuterated-glycine as an internal standard glycine was quantified by LC/MS/MS.

Test [3] deals with T2, glycine transporter-1 (GlyT-1) (Homo sapiens, UniProt P48067).
T2 construct: JAR cells (ATCC#HTB-144), which endogenously express GlyT-1; host or cells: JAR human choriocarcinoma cells
T2 sequence (P48067 1-706): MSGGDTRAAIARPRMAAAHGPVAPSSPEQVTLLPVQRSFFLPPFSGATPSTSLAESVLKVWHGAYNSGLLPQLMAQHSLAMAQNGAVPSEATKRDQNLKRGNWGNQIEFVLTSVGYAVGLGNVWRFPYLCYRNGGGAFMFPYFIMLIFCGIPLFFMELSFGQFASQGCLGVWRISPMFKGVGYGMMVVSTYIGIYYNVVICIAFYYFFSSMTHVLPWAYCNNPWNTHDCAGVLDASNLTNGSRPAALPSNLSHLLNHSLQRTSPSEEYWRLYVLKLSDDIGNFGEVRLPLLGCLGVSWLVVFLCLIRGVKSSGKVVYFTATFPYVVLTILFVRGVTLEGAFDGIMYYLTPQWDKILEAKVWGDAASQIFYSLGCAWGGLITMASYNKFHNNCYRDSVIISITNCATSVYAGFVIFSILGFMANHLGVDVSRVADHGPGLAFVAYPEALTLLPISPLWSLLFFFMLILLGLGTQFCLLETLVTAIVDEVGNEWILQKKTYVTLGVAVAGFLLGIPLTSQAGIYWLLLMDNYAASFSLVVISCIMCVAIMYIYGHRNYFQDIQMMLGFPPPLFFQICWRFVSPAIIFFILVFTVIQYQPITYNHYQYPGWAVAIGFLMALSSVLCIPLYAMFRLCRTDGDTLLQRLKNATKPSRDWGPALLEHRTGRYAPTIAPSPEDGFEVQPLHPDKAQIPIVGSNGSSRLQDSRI
Description: [14C]glycine uptake assay in JAR cells endogenously expressing GlyT-1 (scintillation proximity). Type of test: cell-based. The following applies: JAR cells, [14C]glycine 5 μM, 3 hour incubation; read-out: GlyT-1 IC50. An outline of the steps: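 Human choriocarcinoma JAR cells (endogenous GlyT-1) attached overnight, then pre-incubated 10 min at room temperature with compound in pH 7.4 Hepes uptake buffer containing 5 mM alanine and 0.75% DMSO. Uptake of 5 μM [14C]glycine over 3 h at 37 °C read by scintillation proximity; IC50 from four-parameter fit of nine-point curves.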
On the technique in general: In a scintillation proximity assay essentially only radioactivity close to the scintillant gives light.

Structures are written as SMILES. Where a name gives a salt, the structure may show the parent alone. Read-outs that look alike come from different tables or passages of the source.

A word on the IC50: it is the concentration that inhibits the measured activity by half. With `CC(NC(=O)c1ccc(C(F)(F)F)cc1C(F)(F)F)C1(N2CCN(S(=O)(=O)c3cn(C)nn3)CC2)CCC(F)(F)CC1` (stereo not drawn) [compound 226, N-(1-(4,4-Difluoro-1-(4-(1-methyl-1H-1,2,3-triazol-4-ylsulfonyl)piperazin-1-yl)cyclohexyl)ethyl)-2,4-bis(trifluoromethyl) benzamide Hydrochloride], the IC50 in test [1] is more than 75000 nM; in test [3], 1 nM. Also, the change in vivo at 3 mg/kg stood at 243% in test [2] (2 h, pretreatment 120 mins) and 227% in test [2] (6 h, pretreatment 360 mins). The change in vivo at 10 mg/kg is 344% in test [2] (2 h, pretreatment 120 mins) and 339% in test [2] (6 h, pretreatment 360 mins).
`CCCS(=O)(=O)N1CCN(C2(CNC(=O)c3ccc(C(F)(F)F)cc3C(F)(F)F)CCOCC2)CC1` [compound 267, N-((4-(4-(propylsulfonyl)piperazin-1-yl)tetrahydro-2H-pyran-4-yl)methyl)-2,4-bis(trifluoromethyl) benzamide Hydrochloride]: in test [2] (2 h, pretreatment 120 mins), the change in vivo at 10 mg/kg came to 138% and the change in vivo at 30 mg/kg is 229%. Also, in test [2] (6 h, pretreatment 360 mins), the change in vivo at 10 mg/kg was 129% and the change in vivo at 30 mg/kg was 190%. In test [3], the IC50 turned out to be 46 nM.
For `CCCS(=O)(=O)N1CCN(C2(CNC(=O)c3ccc(Cl)cc3C3CC3)CCC(F)(F)CC2)CC1` [compound 253, 4-Chloro-2-cyclopropyl-N-((4,4-difluoro-1-(4-(propylsulfonyl)piperazin-1-yl)cyclohexyl)methyl) benzamide Hydrochloride], the results for the IC50 in test [1] and in test [3] were more than 75000 nM and 21 nM, respectively.
On the same counts, the results for `Cn1cc(S(=O)(=O)N2CCN(C3(CNC(=O)c4ccc(F)cc4C(F)(F)F)CCC(F)(F)CC3)CC2)nn1` [compound 233, N-((4,4-Difluoro-1-(4-(1-methyl-1H-1,2,3-triazol-4-ylsulfonyl)piperazin-1-yl)cyclohexyl)methyl)-4-fluoro-2-(trifluoromethyl)benzamide Hydrochloride] are more than 75000 nM and 1 nM.
On the same counts, the results for `CCS(=O)(=O)N1CCN(C2(CNC(=O)c3c(Cl)cccc3Cl)CCCCCC2)CC1` [compound 88, 2,6-Dichloro-N-((1-(4-(ethylsulfonyl)piperazin-1-yl)cycloheptyl)methyl) benzamide Hydrochloride] are more than 75000 nM and 195 nM.
On the same counts, the results for `CCCS(=O)(=O)N1CCN(C2(CNC(=O)c3c(Cl)cccc3Cl)CCOCC2)CC1` [compound 119, 2,6-Dichloro-N-((4-(4-(propylsulfonyl)piperazin-1-yl)tetrahydro-2H-pyran-4-yl)methyl)benzamide Hydrochloride] are more than 45000 nM and 276 nM.
Consider `CCCS(=O)(=O)N1CCN(C2(CNC(=O)c3ccc(Br)cc3C)CCCCC2)CC1` [compound 18, 4-Bromo-2-methyl-N-((1-(4-(propylsulfonyl)piperazin-1-yl)cyclohexyl)methyl) benzamide Hydrochloride], for which the figures for the IC50 in test [1] and in test [3] were more than 75000 nM and 28 nM, respectively.
The like results for `CCCS(=O)(=O)N1CCN(C2(CNC(=O)c3ccccc3F)CCCCCC2)CC1` [compound 63, 2-Fluoro-N-((1-(4-(propylsulfonyl)piperazin-1-yl)cycloheptyl)methyl) benzamide Hydrochloride] were, in that order, more than 75000 nM and 99 nM.
Consider `CCCS(=O)(=O)N1CCN(C2(CNC(=O)c3c(Cl)cc(C(F)(F)F)cc3C(F)(F)F)CCC(F)(F)CC2)CC1` [compound 254, 2-Chloro-N-((4,4-difluoro-1-(4-(propylsulfonyl)piperazin-1-yl)cyclohexyl)methyl)-4,6-bis(trifluoromethyl) benzamide Hydrochloride], for which the half-maximal inhibitory concentration (IC50) in test [1] was more than 75000 nM; in test [3], 7 nM.
On the same counts, the results for `CCCS(=O)(=O)N1CCN(C2(CNC(=O)c3ccc(F)cc3C(F)(F)F)CCCCCC2)CC1` [compound 71, 4-Fluoro-N-((1-(4-(propylsulfonyl)piperazin-1-yl)cycloheptyl)methyl)-2-(trifluoromethyl)benzamide Hydrochloride] are more than 75000 nM and 22 nM.
With `CCCS(=O)(=O)N1CCN(C2(CNC(=O)c3ccccc3C)CCCCC2)CC1` [compound 42, 2-Methyl-N-((1-(4-(propylsulfonyl)piperazin-1-yl)cyclohexyl)methyl) benzamide Hydrochloride], the half-maximal inhibitory concentration (IC50) is more than 35000 nM in test [1] and 118 nM in test [3].
With `CCCS(=O)(=O)N1CCN(C2(CNC(=O)c3ccc(Cl)c(Cl)c3)CCCCCC2)CC1` [compound 68, 3,4-Dichloro-N-((1-(4-(propylsulfonyl)piperazin-1-yl)cycloheptyl)methyl) benzamide Hydrochloride], the IC50 in test [1] turned out to be 3150 nM; in test [3], 174 nM.
For `CCCS(=O)(=O)N1CCN(C2(CNC(=O)c3c(Cl)cc(Cl)cc3Cl)CCC(F)(F)CC2)CC1` [compound 260, 2,4,6-Trichloro-N-((4,4-difluoro-1-(4-(propylsulfonyl)piperazin-1-yl)cyclohexyl)methyl) benzamide Hydrochloride], the half-maximal inhibitory concentration (IC50) in test [1] was more than 75000 nM; in test [3] it was 17 nM.
Regarding `CC(NC(=O)c1ccc(C(F)(F)F)cc1Cl)C1(N2CCN(S(=O)(=O)c3cn(C)nn3)CC2)CCC(F)(F)CC1` (racemic) [compound 222, (±)-2-Chloro-N-(1-(4,4-difluoro-1-(4-(1-methyl-1H-1,2,3-triazol-4-ylsulfonyl)piperazin-1-yl)cyclohexyl)ethyl)-4-(trifluoromethyl) benzamide Hydrochloride], the IC50 in test [1] is more than 75000 nM; in test [3] it was 1 nM.
On the same counts, the results for `Cn1cnc(S(=O)(=O)N2CCN(C3(CNC(=O)c4ccc(F)cc4Cl)CCC(F)(F)CC3)CC2)c1` [compound 166, 2-Chloro-N-((4,4-difluoro-1-(4-(1-methyl-1H-imidazol-4-ylsulfonyl)piperazin-1-yl)cyclohexyl)methyl)-4-fluorobenzamide Hydrochloride] are more than 75000 nM and 5 nM.
Consider `CCCS(=O)(=O)N1CCN(C2(CNC(=O)c3c(C)cc(F)cc3OC)CCCC2)CC1` [compound 75, 4-Fluoro-2-methoxy-6-methyl-N-((1-(4-(propylsulfonyl)piperazin-1-yl)cyclopentyl)methyl) benzamide Hydrochloride], for which the IC50 is more than 75000 nM in test [1] and 268 nM in test [3].
